Test results as given in patent publication US11642344B2, “Cholesteryl ester transfer protein (CETP) inhibitor and pharmaceutical compositions comprising said inhibitor for use in the treatment or prevention of cardiovascular diseases” (NewAmsterdam Pharma B.V., priority 2014, dated 2023).

Key:
CETP [1] = molecular target: T1, CETP (Homo sapiens, UniProt P11597); test: In vitro CETP assay: 3H-labeled CE transfer from HDL to VLDL/LDL in human plasma; format: biochemical; details: 24 h pre-incubation at 37° C.
T1 construct: from tissue; host or cells: plasma of Caucasian male subjects dosed with Compound A or placebo
T1 sequence (P11597 18-493): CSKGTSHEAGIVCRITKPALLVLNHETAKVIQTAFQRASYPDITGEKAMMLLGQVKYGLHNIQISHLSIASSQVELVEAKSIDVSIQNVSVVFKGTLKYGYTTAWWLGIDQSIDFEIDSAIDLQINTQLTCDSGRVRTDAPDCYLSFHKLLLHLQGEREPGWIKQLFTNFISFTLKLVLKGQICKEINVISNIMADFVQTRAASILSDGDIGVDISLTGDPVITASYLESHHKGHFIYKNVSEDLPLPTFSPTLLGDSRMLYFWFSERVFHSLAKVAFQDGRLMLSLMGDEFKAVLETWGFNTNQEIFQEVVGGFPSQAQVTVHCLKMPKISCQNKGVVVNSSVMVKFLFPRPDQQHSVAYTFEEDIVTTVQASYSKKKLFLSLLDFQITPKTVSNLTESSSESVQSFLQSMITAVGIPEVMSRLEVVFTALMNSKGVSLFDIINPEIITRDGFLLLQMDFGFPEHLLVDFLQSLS
Experimental: Human blood was obtained from healthy male volunteers using 0.1% EDTA as an anticoagulant, and centrifuged at 3,000 rpm for 15 minutes at 4° C. Human plasma was pooled, and then used for the preparation of ^3H-labeled HDL or stored at −80° C. for CETP assay until use. The ^3H-labeled HDL was prepared with human plasma as described by Glenn and Melton (Methods in enzymology. 263; 339-351, 1996). The specific gravity of plasma was measured by a hydrometer, and the density was adjusted to 1.125 g/mL by adding solid KBr. After centrifugation at 100,000 rpm for 4 hours at 12° C. (rotor: 100.4, Optima TLX, Beckman), d>1.125 g/mL fraction was dialyzed against 4 L of Tris-saline-EDTA buffer (TSE; 50 mmol/L Tris, 150 mmol/L NaCl, 2 mmol/L EDTA, pH7.4) for 18 hours at 4° C. [1,2-^3H(N)]-Cholesterol (37 MBq/mL) was added to the dialyzed plasma fraction at the amount of 2 μCi/mL. The tube was tightly sealed under N2 gas stream and incubated at 37° C. for 18 hours with gently stirring to allow esterification of radio-labeled cholesterol by endogenous LCAT. The incubated plasma fraction was adjusted to d=1.21 g/mL with solid KBr, and centrifuged at 100,000 rpm, 12° C. for 5 hours. ^3H-labeled HDL fraction was dialyzed against 2 L of TSE at 4° C. for 18 hours. The radioactivity of ^3H-labeled HDL was counted in a liquid scintillation counter. ^3H-labeled HDL was stored at 4° C. until use.
CETP activity was determined as the rate of ^3H-labeled CE transfer from donor HDL to acceptor VLDL/LDL. Human plasma (94 μL) was pre-incubated with compounds dissolved in DMSO (1 μL) 24 hours at 37° C., and then incubated for 4 hours at 4° C. or 37° C. with 5 μL of ^3H-labeled HDL. One hundred μL of phosphotungstate/MgCl2 reagent (Wako pure chemical) were added to precipitate apoB-containing lipoproteins. After centrifugation at 3,000 rpm for 10 minutes at room temperature, the radioactivity of the supernatant was counted in a liquid scintillation counter. […] The concentration achieving 50% inhibition of CETP activity (IC50) was estimated.

CETP [2] = test: Ex vivo serum CETP activity after oral administration to hamsters; design: species or system Syrian Golden hamsters; details: 3 mg/kg oral, suspension in 0.5% CMC, serum 3 hours after administration
Experimental: Syrian Golden hamsters were used for the experiment after 1-week acclimatization. After an overnight fast, animals were orally given the compound suspension in 0.5% sodium carboxymethylcellulose in a volume of 10 mL/kg. Under deep anesthesia with ether, blood was collected from the abdominal aorta 3 hours after the administration. For preparation of serum, the collected blood was transferred to a plastic tube containing a clot activator, left still for 15 minutes at room temperature and centrifuged. Serum CETP activities were determined immediately.
Ninety-five μL serum were added to 5 μL of […] sodium phosphate buffered saline (pH 7.0) containing 1.5 mM 5,5′-dithio-bis(2-nitrobenzoic acid) in two 96-well V-bottom plates. One plate was incubated at 4° C. and the other was incubated at 37° C. After 18 hours of incubation, each sample was mixed with 100 μL of reagent for precipitation of apolipoprotein B-containing lipoproteins (phosphotungstate/MgCl2 reagent, Wako pure chemical), left still for 10 minutes at room temperature and centrifuged. Total cholesterol (TC) and free cholesterol (FC) in supernatant were measured using commercial kits (Cholesterol E-test wako, and Free Cholesterol E-test wako; Wako pure chemical). Cholesteryl ester (CE) was calculated by subtracting FC from TC. CETP activity was determined by the following formula: CETP activity=[CETP transfer]*/[CE value in 4° C. incubation sample] *CETP transfer=[CE value in 4° C. incubation sample]−[CE value in 37° C. incubation sample] (c) Results

Compound: CCOC(=O)N1c2ccc(C(F)(F)F)cc2[C@@H](N(Cc2cc(C(F)(F)F)cc(C(F)(F)F)c2)c2ncc(OCCCC(=O)O)cn2)C[C@H]1CC [Compound A, {4-[(2-{[3,5-bis(trifluoromethyl)benzyl][(2R,4S)-1-(ethoxycarbonyl)-2-ethyl-6-(trifluoromethyl)-1,2,3,4-tetrahydroquinolin-4-yl]amino}pyrimidin-5-yl)oxy]butanoic acid}]
- IC50 (CETP [1]): 0.064 µM
- ex vivo (% inhibition) 3 mg/kg (CMC) (CETP [2]): 79.2%
